These are literature values, as cited in patent publication US11877998B2, “Supplement composition” (H & H SCIENCE, LLC, priority 2017, dated 2024).

Series [1] relates to nonmelanoma skin cancer. The following applies: oral, high risk group.
Series [2] has as its system retinol-binding proteins (RBPs). Conditions: acne patients, oral, after four weeks.
The subject of series [3] is hair growth. The following applies: men taking supplements.

With `O=C(O)c1cccnc1` [oral niacin, niacin], the “reduction of nonmelanoma skin cancer” value in series [1] is reported as “by a quarter”. Turning to `[Zn]` [zinc], the “serum levels of retinol-binding proteins (RBPs)” value in series [2] is “not observed”. Consider vitamin A [oral vitamin A], for which the “serum levels of retinol-binding proteins (RBPs)” value in series [2] is given as “not observed”. Turning to vitamin E, the “hair growth versus placebo” value in series [3] is given as “grew more hair”.
